Measured values as given in patent publication US11092596B2, “Material and method to screen proteasome stimulators” (Purdue Research Foundation, priority 2017, dated 2021).
“Also recorded” adds a separate entry of the source.

Experiments:
[1] = biological target: T1, chymotrypsin-like activity of the 20S CP (Homo sapiens, UniProt P28074); test: Kinetic assay, Suc-LLVY-AMC reporter hydrolysis by purified 20S CP; assay type: biochemical; settings: 25 μM compound, triplicate; hit = at least 50% increase
T1 construct: 5 μL purified 20S proteasome (90 nM in Tris-HCl) was added to the control and test wells
Description: Plate preparation for the kinetic assay was performed similarly for all assays. All 96-well plates contained the following in triplicate: reporter background, containing reporter only, and control wells, containing reporter and purified 20S CP. It was determined that each well will contain a total volume of 50 μL. To each well was added 40 μL of the coumarin or FRET reporters (in Tris-HCl, 50 mM, pH 7.7). To the reporter background wells was added 7.5 μL Tris-HCl and 2.5 μL of the solvent in which the compound of interest was dissolved or diluted. Similarly, to the control wells was added 2.5 μL Tris-HCl and 2.5 μL of the solvent in which the compound of interest was dissolved or diluted. To the test wells was added 2.5 μL Tris-HCl and 2.5 μL of the compound of interest at a predetermined concentration. Immediately prior to running the assay on the Synergy 4 Plate Reader, 5 μL purified 20S proteasome (90 nM in Tris-HCl) was added to the control and test wells.
The Synergy 4 Plate Reader was set to heat the plate at 37° C. and read fluorescence every 2 min over a 40 min period. The excitation and emission wavelengths were set according to the reporter. For the FRET reporter, the excitation and emission wavelengths were set to 335 nm and 493 nm, respectively, corresponding to the excitation and emission wavelengths of the Edans fluorophore. […]
Sodium dodecyl sulfate (SDS) was used to test the effect stimulating the 20S proteasome has on the hydrolysis of the FRET reporters. The appropriate concentration of SDS to use in the kinetic assay was determined using the small chymotrypsin-like activity reporter, Suc-LLVY-AMC (SEQ ID NO: 4). […] In triplicate, the following final concentrations of SDS were analyzed for the effect each has on the activity of the 20S proteasome: 4000 μM, 2000 μM, 1000 μM, 500 μM, 250 μM, 125 μM, and 0 μM, the basal activity of the 20S proteasome. […] Immediately prior to reading the plate with the Synergy 4 plate reader, 5 μL purified 20S proteasome (90 nM in Tris-HCl) was added to the wells at a final concentration of 9 nM per well.
The Synergy 4 Plate Reader was set to heat the plate at 37° C. and read fluorescence every 2 min over a 1 hr period. […] The resulting data in relative fluorescence units (RFU) was analyzed using GraphPad Prism and was plotted against time in minutes. […] Based on the resulting curve and the hyperbolic curve obtained using 1000 μM SDS (FIG. 11b), it was determined that 500 μM SDS was the appropriate concentration to use to test the effect stimulating the 20S proteasome has on the hydrolysis of the FRET reporters.
Stimulation of the 20S proteasome with SDS was determined using both the coumarin and FRET reporters for the chymotrypsin-like and trypsin-like activities of the 20S CP. […]

[2] = biological target: chymotrypsin-like activity of the immunoproteasome core particle (iCP) (Homo sapiens, UniProt P28062); test: Kinetic assay, CT-L FRET reporter with immunoproteasome; assay type: biochemical; settings: 25 μM compound
Description: Compounds 1, 2, and 3 were screened with the immunoproteasome in triplicate using the CT-L FRET reporter.
To each well was added 40 μL 20 μM CT-L FRET reporter (in Tris-HCl, 50 mM, pH 7.7). To the reporter background wells was added 5 μL Tris-HCl and 5 μL 1:1 Tris-HCl:DMSO. Similarly, to the control wells was added 5 μL 1:1 Tris-HCl:DMSO. To the test wells was added 2.5 μL Tris-HCl and 2.5 μL of a 500 μM solution of the compound of interest in DMSO. […] Immediately prior to running the assay on the Synergy 4 Plate Reader, 5 μL purified 26S proteasome (62.5 μg/mL in Tris-HCl) was added to the control and test wells.
The assay was performed using the Synergy 4 plate reader as described for the general screening kinetic assay procedure.

C[C@H]1[C@H](C)CC[C@]2(C(=O)O)CC[C@]3(C)C(=CC[C@@H]4[C@@]5(C)CC[C@H](O)C(C)(C)[C@@H]5CC[C@]43C)[C@H]12 [Compound 2, ursolic acid]
primary hit status with the 4-amino acid reporter Suc-LLVY-AMC [1]: would not have been considered primary hits
ability to stimulate the chymotrypsin-like activity of the iCP [2]: showed an effect; also recorded: stimulate the chymotrypsin-like activity of the iCP significantly

Cc1c(C)c2c(c(C)c1OC(=O)CCC(=O)O)CC[C@@](C)(CCC[C@H](C)CCC[C@H](C)CCCC(C)C)O2 [Compound 3, vitamin E succinate]
primary hit status with the 4-amino acid reporter Suc-LLVY-AMC [1]: would not have been considered primary hits
ability to stimulate the chymotrypsin-like activity of the iCP [2]: showed an effect; also recorded: stimulate the chymotrypsin-like activity of the iCP significantly
